According to BigSolDB 2.1:

In the case of `c1ccc2ccccc2c1`, the solubility (mole fraction) (in acetone, 297.17 K) is reported as 0.211, the solubility (mole fraction) (in acetone, 298.11 K) is reported as 0.218 and the solubility (mole fraction) (in acetone, 300.23 K) is reported as 0.233. For the same compound, the solubility (mole fraction) (in acetone, 301.55 K) was 0.246, the solubility (mole fraction) (in acetone, 303.47 K) was 0.259 and the solubility (mole fraction) (in acetone, 305.14 K) was 0.272. The solubility (mole fraction) (in acetone, 306.63 K) was 0.285, the solubility (mole fraction) (in acetone, 307.76 K) was 0.297 and the solubility (mole fraction) (in acetone, 309.37 K) was 0.31. The solubility (mole fraction) (in acetone, 311.03 K) was 0.323, the solubility (mole fraction) (in acetone, 312.03 K) was 0.335 and the solubility (mole fraction) (in acetone, 312.97 K) was 0.347. It also gave a solubility (mole fraction) (in acetone, 314.37 K) of 0.361, a solubility (mole fraction) (in acetone, 315.74 K) of 0.376 and a solubility (mole fraction) (in acetone, 317.26 K) of 0.394. For the same compound, the solubility (mole fraction) (in acetone, 319.06 K) was 0.415, the solubility (mole fraction) (in acetone, 320.87 K) was 0.44 and the solubility (mole fraction) (in acetone, 322.7 K) was 0.459. The solubility (mole fraction) (in ethanol, 304.26 K) was 0.0464, the solubility (mole fraction) (in ethanol, 307.44 K) was 0.0531 and the solubility (mole fraction) (in ethanol, 309.53 K) was 0.0566. For the same compound, the solubility (mole fraction) (in ethanol, 311.93 K) was 0.0614, the solubility (mole fraction) (in ethanol, 314.52 K) was 0.0658 and the solubility (mole fraction) (in ethanol, 315.93 K) was 0.0703. For the same compound, the solubility (mole fraction) (in ethanol, 318.07 K) was 0.076, the solubility (mole fraction) (in ethanol, 319.8 K) was 0.0816 and the solubility (mole fraction) (in ethanol, 321.46 K) was 0.0876. The solubility (mole fraction) (in ethanol, 323.45 K) was 0.103, the solubility (mole fraction) (in ethanol, 325.68 K) was 0.116 and the solubility (mole fraction) (in ethanol, 327.32 K) was 0.129. The solubility (mole fraction) (in ethanol, 329.34 K) was 0.14, the solubility (mole fraction) (in ethanol, 330.43 K) was 0.154 and the solubility (mole fraction) (in ethanol, 332 K) was 0.174. The solubility (mole fraction) (in ethanol, 333.9 K) was 0.204, the solubility (mole fraction) (in ethanol, 335.9 K) was 0.238 and the solubility (mole fraction) (in ethanol, 337.76 K) was 0.293. The solubility (mole fraction) (in ethanol, 339.76 K) was 0.382, the solubility (mole fraction) (in n-butanol, 313.77 K) was 0.113 and the solubility (mole fraction) (in n-butanol, 315.17 K) was 0.119. The solubility (mole fraction) (in n-butanol, 317.98 K) was 0.139, the solubility (mole fraction) (in n-butanol, 320.74 K) was 0.159 and the solubility (mole fraction) (in n-butanol, 323.67 K) was 0.183. For the same compound, the solubility (mole fraction) (in n-butanol, 325.6 K) was 0.205, the solubility (mole fraction) (in n-butanol, 327.76 K) was 0.228 and the solubility (mole fraction) (in n-butanol, 329.03 K) was 0.252. For the same compound, the solubility (mole fraction) (in n-butanol, 331.8 K) was 0.294, the solubility (mole fraction) (in n-butanol, 333.65 K) was 0.333 and the solubility (mole fraction) (in n-butanol, 335.1 K) was 0.375. It also gave a solubility (mole fraction) (in n-butanol, 337 K) of 0.436, a solubility (mole fraction) (in n-butanol, 338.15 K) of 0.477 and a solubility (mole fraction) (in n-butanol, 339.63 K) of 0.526. For the same compound, the solubility (mole fraction) (in n-butanol, 340.65 K) was 0.567, the solubility (mole fraction) (in n-butanol, 342.04 K) was 0.62 and the solubility (mole fraction) (in n-butanol, 342.8 K) was 0.66. It also gave a solubility (mole fraction) (in n-heptane, 290.25 K) of 0.0595, a solubility (mole fraction) (in n-heptane, 294.3 K) of 0.0705 and a solubility (mole fraction) (in n-heptane, 297.85 K) of 0.0798. The solubility (mole fraction) (in n-heptane, 301.37 K) was 0.0889, the solubility (mole fraction) (in n-heptane, 303.04 K) was 0.0978 and the solubility (mole fraction) (in n-heptane, 305.3 K) was 0.107. The solubility (mole fraction) (in n-heptane, 307.53 K) was 0.115, the solubility (mole fraction) (in n-heptane, 309.63 K) was 0.123 and the solubility (mole fraction) (in n-heptane, 311.2 K) was 0.133. The solubility (mole fraction) (in n-heptane, 312.6 K) was 0.141, the solubility (mole fraction) (in n-heptane, 314.13 K) was 0.15 and the solubility (mole fraction) (in n-heptane, 315.15 K) was 0.158. For the same compound, the solubility (mole fraction) (in n-heptane, 316.63 K) was 0.168, the solubility (mole fraction) (in n-heptane, 317.65 K) was 0.177 and the solubility (mole fraction) (in n-heptane, 321.33 K) was 0.209. The solubility (mole fraction) (in n-heptane, 324.25 K) was 0.23, the solubility (mole fraction) (in n-heptane, 326.98 K) was 0.265 and the solubility (mole fraction) (in n-heptane, 329.45 K) was 0.304. For the same compound, the solubility (mole fraction) (in n-heptane, 330.26 K) was 0.329, the solubility (mole fraction) (in n-heptane, 331.5 K) was 0.35 and the solubility (mole fraction) (in n-heptane, 333.75 K) was 0.389. For the same compound, the solubility (mole fraction) (in toluene, 291.35 K) was 0.239, the solubility (mole fraction) (in toluene, 301.45 K) was 0.31 and the solubility (mole fraction) (in toluene, 304.54 K) was 0.34. The solubility (mole fraction) (in toluene, 308.53 K) was 0.374, the solubility (mole fraction) (in toluene, 311.93 K) was 0.406 and the solubility (mole fraction) (in toluene, 315.25 K) was 0.439. For the same compound, the solubility (mole fraction) (in toluene, 318.55 K) was 0.472, the solubility (mole fraction) (in toluene, 322.23 K) was 0.503 and the solubility (mole fraction) (in toluene, 324.37 K) was 0.537. The solubility (mole fraction) (in toluene, 327.55 K) was 0.589, the solubility (mole fraction) (in toluene, 331.35 K) was 0.637 and the solubility (mole fraction) (in toluene, 334.65 K) was 0.677.
